Where two headings read alike, the source gives them in different places.
Target: human recombinant GSK-3β (Homo sapiens, UniProt P49841)
Assay: GSK-3β activity, AlphaScreen with primed glycogen synthase substrate peptide
Assay type: biochemical
Description: GSK-β activity was measured using human recombinant GSK-3β and a primed (pre-phosphorylated) substrate peptide (derived from glycogen synthase and containing the phosphorylation sites 3a, b, and c) on basis of the AlphaScreen technology in 384-well plate format (small volume plate, white, GREINER).

[1] = human recombinant GSK-3β, 10 μM ATP, 60 min at room temperature, AlphaScreen, read-out: IC50

Chain of human recombinant GSK-3β (P49841 whole entry): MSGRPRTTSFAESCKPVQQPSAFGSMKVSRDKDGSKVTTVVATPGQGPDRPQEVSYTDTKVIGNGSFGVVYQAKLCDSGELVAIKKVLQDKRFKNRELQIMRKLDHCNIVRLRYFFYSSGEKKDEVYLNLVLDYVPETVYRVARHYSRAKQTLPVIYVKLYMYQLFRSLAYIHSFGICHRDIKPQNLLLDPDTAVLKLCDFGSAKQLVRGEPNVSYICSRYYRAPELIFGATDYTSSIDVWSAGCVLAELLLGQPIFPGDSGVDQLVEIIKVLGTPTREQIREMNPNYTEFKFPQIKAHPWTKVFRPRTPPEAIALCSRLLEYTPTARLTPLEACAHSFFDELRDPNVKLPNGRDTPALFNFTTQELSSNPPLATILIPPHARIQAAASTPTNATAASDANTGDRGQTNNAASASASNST

IC50 [1]	IC50	Compound
17 nM		O=C(NCc1ccc(Cl)cc1)c1cc(-c2ccnc(NCCN3CCOCC3)n2)n[nH]c1=O [Example 175, 6-[2-(2-Morpholin-4-yl-ethylamino)-pyrimidin-4-yl]-3-oxo-2,3-dihydro-pyridazine-4-carboxylic acid 4-chloro-benzylamide;compound withtrifluoro-acetic acid]
	39 nM	O=C(NCc1ccc(Cl)cc1)c1cc(-c2ccc(O)c(F)c2)n[nH]c1=O [Example 183, 6-(3-Fluoro-4-hydroxy-phenyl)-3-oxo-2,3-dihydro-pyridazine-4-carboxylic acid 4-chloro-benzylamide]
1 nM		COc1cc(-c2cc(C(=O)NCCCc3cccnc3)c(=O)[nH]n2)ccc1O [Example 49, 6-(4-Hydroxy-3-methoxy-phenyl)-3-oxo-2,3-dihydro-pyridazine-4-carboxylic acid (3-pyridin-3-yl-propyl)-amide]
86 nM		O=C(Nc1ccncc1)c1ccc(CNC(=O)c2cc(-c3ccncc3)n[nH]c2=O)cc1 [Example 156, 3-Oxo-6-pyridin-4-yl-2,3-dihydro-pyridazine-4-carboxylic acid 4-(pyridin-4-ylcarbamoyl)-benzylamide;compound withtrifluoro-acetic acid]

More lines, now with the values behind:

Compound	IC50 [1]	IC50
Cc1cc(-c2cc(C(=O)NCc3ccc(Cl)cc3)c(=O)[nH]n2)ccc1O [Example 155]	10300 nM	
CCCCNc1nccc(-c2cc(C(=O)NCCCc3cccnc3)c(=O)[nH]n2)n1 [Example 220, 6-(2-Butylamino-pyrimidin-4-yl)-3-oxo-2,3-dihydro-pyridazine-4-carboxylic acid (3-pyridin-3-yl-propyl)-amide]		36 nM
O=C(NCc1ccc(C(F)(F)F)cc1)c1cc(-c2ccncc2)n[nH]c1=O [Example 112, 3-Oxo-6-pyridin-4-yl-2,3-dihydro-pyridazine-4-carboxylic acid 4-trifluoromethyl-benzylamide;compound withtrifluoro-acetic acid]	123 nM	
COc1cc(-c2cc(C(=O)NCc3ccc(C(=O)O)cc3)c(=O)[nH]n2)ccc1O [Example 225, 4-({[6-(4-Hydroxy-3-methoxy-phenyl)-3-oxo-2,3-dihydro-pyridazine-4-carbonyl]-amino}-methyl)-benzoic acid]	9 nM	
O=C(NCc1ccc(Cl)cc1)c1cc(-c2cc(F)c(O)c(F)c2)n[nH]c1=O [Example 182, 6-(3,5-Difluoro-4-hydroxy-phenyl)-3-oxo-2,3-dihydro-pyridazine-4-carboxylic acid 4-chloro-benzylamide]	170 nM	
CCNc1nccc(-c2cc(C(=O)NCc3ccc(Cl)cc3)c(=O)[nH]n2)n1 [Example 190, 6-(2-Ethylamino-pyrimidin-4-yl)-3-oxo-2,3-dihydro-pyridazine-4-carboxylic acid 4-chloro-benzylamide]	> 1000 nM	
O=C(NCc1ccc(Cl)cc1F)c1cc(-c2ccncc2)n[nH]c1=O [Example 116, 3-Oxo-6-pyridin-4-yl-2,3-dihydro-pyridazine-4-carboxylic acid 4-chloro-2-fluoro-benzylamide;compound withtrifluoro-acetic acid]	250 nM	
O=C(NCCCc1cccnc1)c1cc(-c2ccc(O)cc2)n[nH]c1=O [Example 164, 6-(4-Hydroxy-phenyl)-3-oxo-2,3-dihydro-pyridazine-4-carboxylic acid (3-pyridin-3-yl-propyl)-amide]	7 nM	
O=C(NCc1ccc(F)cc1F)c1cc(-c2ccncc2)n[nH]c1=O [Example 117, 3-Oxo-6-pyridin-4-yl-2,3-dihydro-pyridazine-4-carboxylic acid 2,4-difluoro-benzylamide;compound withtrifluoro-acetic acid]		65 nM
CNc1cc(-c2cc(C(=O)NCc3ccc(Cl)cc3)c(=O)[nH]n2)ccn1 [Example 206, 6-(2-Methylamino-pyridin-4-yl)-3-oxo-2,3-dihydro-pyridazine-4-carboxylic acid 4-chloro-benzylamide]	30 nM	

Source: US7309701B2, “Pyridazinone derivatives as pharmaceuticals and pharmaceutical compositions containing them” (Sanofi-Aventis Deutschland GmbH, priority 2002, dated 2007)
